Legend:
[1] = tested on: hearing in rats; assay: Auditory Evoked Brainstem Response (ABR), permanent threshold shift after cisplatin; type: in vivo, rat; conditions: cisplatin 16 mg/kg plus Ebselen 16 mg/kg i.p., compared to cisplatin without Ebselen, 72 hours (FIG. 8)
Procedure: (§1) Auditory Evoked Brainstem Response (ABR) was used to assess hearing in rats before and after exposure to cisplatin and chemoprotectants. Ebselen or DMSO (control vehicle) were introduced intraperitoneally into rats one hour before intraperitoneal administration of cisplatin at a dosage of 16 mg/kg body weight. Seventy two hours after delivery of cisplatin, ABR data were collected, animals were sacrificed, cochleae were collected, dissected, stained with FITC-phalloidin (to detect F-Actin in hair cells), and DAPI (to detect nuclear DNA).

[2] = tested on: inner ear hair cells; assay: Cochlea explant culture, inner ear hair cell count after cisplatin; type: cell-based, mouse; conditions: 43 μM cisplatin plus 47 μM Ebselen, 24 hours (FIG. 7)
Procedure: Three cochlea per treatment, obtained from P3-4 mouse pups, were cultured in 0.4 micrometer MilliCell-CM inserts with NeuroBasal A medium plus B27 supplement. After 24 hours in culture Ebselen was added to the medium, incubated for ten minutes, and then cisplatin was added to the medium at a final concentration of 43 μM. A first control treatment included 43 μM cisplatin. A second control treatment included 47 μM Ebselen without the addition of cisplatin. All cultures were incubated for 24 hours at 37° C. in 5% carbon dioxide.
The explants were then harvested, fixed, and stained with calbindin (which detects hair cells) and DAPI (4′,6-Diamindino-2-phenylindole; for detection of nuclear DNA).

[3] = tested on: cochlear outer hair cells; assay: Count of outer auditory hair cells in excised cochleae after cisplatin; type: in vivo, rat; conditions: rats, cisplatin plus Ebselen compared to cisplatin without Ebselen (FIG. 10A, 10B)
Procedure: as §1
Additionally, cochleae were excised from rats treated with the combination of cisplatin and Ebselen as described in this Example. Cochleae were also excised from rats treated with cisplatin and saline and DMSO (control). The number of outer auditory hair cells in the excised cochlea were counted at intervals of 0.1 mm along the cochlea. Representative results from a control rat and a treated rat are shown in FIG. 10A and FIG. 10B, respectively.

[4] = tested on: NuTu-19 ovarian cancer cells; assay: MTS cell viability assay of cultured NuTu-19 cells; type: cell-based; conditions: for inhibition of the ability of cisplatin to kill NuTu-19 ovarian cancer tumor cells in culture: single chemoprotectant plus cisplatin 43 μM (FIG. 2-4)
Procedure: NuTu-19 cells were plated at a density of 3,000 cells per well in 96 well culture dishes, and incubated at 37° C., in the presence of 5% carbon dioxide, for 24 hours. N-acetylcysteine, Ebselen or allopurinol were incubated for one hour, or for four hours, with the NuTu-19 cells, then cisplatin was added to the cultures which were further incubated at 37° C., in the presence of 5% carbon dioxide, for 24 hours. The NuTu-19 cells were then rinsed with media and incubated in […] cisplatin for an additional 24 hours.
The NuTu-19 cells were then rinsed twice with phosphate buffered saline (PBS), then MTS assays were performed to measure the number of living cells. MTS is an abbreviation for (3-(4,5-dimethylthiazol-2-yl)-5-(3-carboxymethoxyphenyl)-2-(4-sulfophenyl)-2H-tetrazolium. The MTS assay is a colorimetric method for determining the number of viable cells based upon physiologic catabolism of MTS to a formazan product that is soluble in tissue culture medium. The absorbance of the formazan product at 490 nm can be measured directly from a 96 well plate using a plate reader. Increased absorbance at 490 nm correlates with increased production of formazan in a well. This is typically due to more viable cells present in a well.

SMILES	permanent threshold shift (PTS) in hearing at 8, 16, 24 and 32 kHz [1]	number of inner ear hair cells (protection from damage by cisplatin in vitro) [2]	percentage of outer hair cells missing in cochleae [3]	inhibition of the ability of cisplatin to kill NuTu-19 ovarian cancer tumor cells in culture [4]	percentage of live, cultured NuTu-19 ovarian cancer cells ([4]; incubation for 24 hours in the presence of cisplatin (FIG. 1))
O=c1c2ccccc2[se]n1-c1ccccc1 [Ebselen, 2-phenyl-1,2-benzoisoselenazol-3(2H)-one]	less	protects	less	does not inhibit	
CC(=O)N[C@@H](CS)C(=O)O [N-acetylcysteine, N-acetyl-L-Cysteine]				does not inhibit	
Oc1ncnc2[nH]ncc12 [allopurinol, 4-hydroxypyrazolo[3,4-d]pyrimidine]				does not inhibit	
N.N.[Cl][Pt][Cl] [cisplatin, cis-diamminedichloroplatinum]					killed

— US8309560B2, “Methods and compositions for ameliorating the undesirable effects of chemotherapy” (Sound Pharmaceuticals Incorporated, priority 2001, dated 2012)
